# Tests used:
# [1] = test system: mouse cerebral cortex primary neurons; experiment: Neuritic beading degeneration in neurons incubated with activated microglia conditioned medium; assay type: cell-based; conditions: for number of neurons with neuritic beading degeneration: 24 h
# Protocol: (§1) Mouse primary microglia were isolated from primary mixed glial cell cultures (obtained from newborn C57BL/6J mice brains) by the ‘shaking off’ method on the 14th culture day or later (Suzumura, A. et al. MHC antigen expression on bulk isolated macrophage-microglia from newborn mouse brain: induction of 1a antigen expression by gamma-interferon. J. Neuroimmunol. 15, 263-278 (1987)).
# In addition, mouse cerebral cortex primary neurons were prepared from the cerebral cortices of C57BL/6J mice at embryonic 17th day, and were plated on poly-ethyleneimine (PEI)-coated cover slips. Neurons were used at 10th to 13th culture day (Takeuchi et al. Neuritic beading induced by activated microglia is an early feature of neuronal dysfunction toward neuronal death by inhibition of mitochondrial respiration and axonal transport. J. Biol. Chem. 280, 10444-10454 (2005)).
# (§2) Microglia were cultured with the culture medium (approximately 5×10^4 cells/well, Neuron Medium (manufactured by Sumitomo Bakelite Co., LTD.) administered with 1 μg/ml of LPS or 100 ng/ml of cytokines (IL-1β, IL-6, IL-10, IFN-γ, or TNF-α), respectively. Microglia were incubated under 100% humidity and 5% CO2 at 37° C. for 24 hours. Note that as a control, microglia were cultured similarly except that no cytokine was added.
# Neurons in a 24-well plate (5×10^4 cells/well) were incubated with 500 μl of conditioned medium of microglia activated as above. […]
# (§3) The various neurons obtained as above were cultured for 24 hours, then, neurons in each well were measured for both the number of neurons with neuritic beading degeneration and the number of dead neurons. […] The ratio of neurons with neuritic beading degeneration was calculated as a percentage of total neurons. Note that neurons in duplicate wells were assessed blindly in three independent trials. In addition, the number of dead neurons was assessed by the dye-exclusion method with propidium iodide (PI). […] The ratio of dead neurons was calculated as a percentage of PI-positive cells among total neurons.
# activated microglia = experiment: Glutamate concentration in neuron culture medium (glutamate released from activated microglia), colorimetric assay; assay type: cell-based, mouse; conditions: 24 h; for extracellular glutamate concentration: versus no drug (TNF)
# Protocol: as §1, §2
# Neurons in a 24-well plate (5×10^4 cells/well) were incubated with 500 μl of conditioned medium of microglia activated as above. Neurons were administered similarly non-activated microglia conditioned medium to serve as a control for the indirect stimulation group. […]
# In the present example, the amount of glutamate released from microglia stimulated with various cytokines, intracellular ATP concentration and mitochondrial damage in neurons incubated with conditioned medium were measured. […]
# After incubation for 24 hours as above, the concentration of glutamate in the conditioned medium of each neuronal culture well was measured using Glutamate Assay Kit colorimetric assay (manufactured by Yamasa Corporation) according to the protocol thereof, measuring the absorption at 600 nm in a multiplate reader. […]
# The various neurons prepared as above were cultured for 24 hours, then, glutamate concentration, the numbers of neurons with neuritic beading degeneration and dead neurons were measured for neurons in each neuronal culture well. Quantification of glutamate concentration was carried out similarly to Example 2, measurements of the numbers of neurons with neuritic beading degeneration and dead neurons were carried out similarly to Example 1. […]
# [2] = test system: mouse cerebral cortex primary neurons; experiment: Neuronal intracellular ATP concentration, chemiluminescent method; assay type: cell-based; conditions: conditioned medium of microglia treated with 100 ng/ml TNF-α; 24 h
# Protocol: (§4) In the present example, the amount of glutamate released from microglia stimulated with various cytokines, intracellular ATP concentration and mitochondrial damage in neurons incubated with conditioned medium were measured. […] The evaluations were carried out by the following methods.
# After incubation of the various neurons obtaine for 24 hours as above, intracellular ATP in each neuronal culture well was measured using AposSENSOR Cell Viability Assay Kit (manufactured by Bio Vision) according to the protocol thereof, by the chemiluminescent method. ATP concentration was calculated as a percentage of control.
# [3] = test system: mouse cerebral cortex primary neurons; experiment: Neuronal mitochondrial damage, MTS assay; assay type: cell-based; conditions: conditioned medium of microglia treated with 100 ng/ml TNF-α; 24 h
# Protocol: as §4
# After incubation for 24 hours as above, the extent of neuronal mitochondria damage in each neuronal culture well was measured using CellTiter96 Aqueous One Solution assay (manufactured by Promega) according to the protocol, performing the MTS method, measuring the absorption at 490 nm in a multiplate reader. Note that the assays were carried out in six independent trials.
# connexin-32 (C×32) = experiment: Microglial cell surface expression of connexin-32 by flow cytometry; assay type: cell-based, mouse; conditions: microglia stimulated with 100 ng/ml TNF-α, 24 h
# Protocol: In the present example, an analysis of LPS- or TNF-α-stimulated microglial cell surface expression of connexin-32 (C×32), which is a major constitutive component of gap junction, was carried out with a flow cytometer. The preparation of microglia was carried out similarly to Example 1, and microglia activation was carried out similarly to Example 4. To Detect C×32 anti-mouse C×32 antibody (manufactured by Chemicon) was used.
# [4] = test system: mouse cerebral cortex primary neurons; experiment: Dead neurons (propidium iodide dye-exclusion) in neurons incubated with activated microglia conditioned medium; assay type: cell-based; conditions: 24 h
# Protocol: as §1
# In addition, mouse cerebral cortex primary neurons were prepared from the cerebral cortices of C57BL/6J mice at embryonic 17th day, and were plated on poly-ethyleneimine (PEI)-coated cover slips. […]
# as §3
# [5] = test system: ischemia-induced delayed neuronal cell death model; experiment: Ischemia-induced delayed neuronal cell death model; assay type: in vivo, Mongolian gerbils; conditions: for delayed neuronal cell death (micrographs of hippocampal CA1, FIG. 15) / number of surviving neurons per 100 μm in the hippocampal CA1 region: 7 days after ischemia; for number of surviving neurons per 100 μm in the hippocampal CA1 region: p<0.001 versus control
# Protocol: In the present example, the effect of gap junction inhibitor and glutaminase inhibitor on neuronal cell death was evaluated using ischemia-induced delayed neuronal cell death model. Note that all protocols were approved by the Animal Experiment Committee of Nagoya University. Note that the animal model in the present example corresponds to a model of ischemic disorder, which is a nervous system disease.
# According to reference by Imai et al. (Imai F, Sawada M, Suzuki H, Zlokovic B V, Kojima J, Kuno S, Nagatsu T, Nitatori T, Uchiyama Y, Kanno T., Exogenous microglia enter the brain and migrate into ischemic hippocampal lesions. et al. Neuroscience Letter. 272 (2): 127-130. 1999)□ adult male Mongolian gerbils, 10-12 weeks old and weighing approximately 70 g, were anesthetized with sevoflurane maintaining rectal temperature at 37° C. Global forebrain ischemia was produced transiently by occluding both common carotid arteries for 5 minutes using aneurysm clips.
# Administration of the gap junction inhibitor carbenoxolone (CBX) was carried out in the following three groups. That is to say, the doses were 20 mg/kg body weight (CBX1), 2 mg/kg body weight (CBX1/10) and 0.2 mg/kg body weight (CBX1/100). Administration of the glutaminase inhibitor 6-diazo-5-oxo-L norleucine (DON) was carried out in the following three groups. That is to say, the doses were 1.6 mg/kg body weight (DON1), 0.16 mg/kg body weight (DON1/10) and 0.016 mg/kg body weight (DON1/100). CBX or DON was administered intraperitoneally every other day from the day of ischemia. Note that control animals were injected with the equal volume of phosphate-buffered saline (PBS).
# Seven days after ischemia, gerbils were anesthetized and transcardically perfused with 4% paraformaldehyde in PBS. The brains were removed, embedded in O.C.T. compound (manufactured by Sakura Finetech) and then frozen in liquid nitrogen. Frozen sections were prepared with a cryostat (8 μm thick), were mounted onto a slide glass and were stained with haematoxylin and eosin. To assess the effect of drug treatment on delayed neuronal death, the number of surviving neurons per 100 μm in the hippocampal CA1 region was counted under a microscope.
# [6] = test system: experimental autoimmune encephalomyelitis (EAE) model; experiment: MOG-induced experimental autoimmune encephalomyelitis (EAE) model; assay type: in vivo, C57BL/6J mice; conditions: for EAE onset day (EAE clinical score becomes 1 or greater) / number of severe sick days (EAE clinical score four or greater): p<0.05
# [7] = 1 mM DON with activated microglia conditioned medium
# [8] = DON 0.016, 0.16, 1.6 mg/kg i.p. every other day
# [9] = DON1: 1.6 mg/kg i.p. every other day
# [10] = 100 μM CBX with activated microglia conditioned medium
# [11] = CBX 0.2, 2, 20 mg/kg i.p. every other day
# [12] = CBX1/10: 2 mg/kg i.p. every other day
# connexin-32 (C×32), sequence (P28230 whole entry): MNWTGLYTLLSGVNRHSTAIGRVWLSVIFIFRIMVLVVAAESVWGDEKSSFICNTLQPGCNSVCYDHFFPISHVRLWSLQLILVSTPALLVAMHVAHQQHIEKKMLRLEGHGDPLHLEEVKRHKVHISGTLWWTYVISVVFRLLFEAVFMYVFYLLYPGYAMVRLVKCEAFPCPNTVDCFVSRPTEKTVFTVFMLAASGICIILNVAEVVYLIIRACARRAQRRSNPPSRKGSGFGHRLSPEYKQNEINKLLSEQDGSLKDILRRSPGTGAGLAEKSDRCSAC
molecule,measurement,setting,value
TNF-α,ratio of neurons with neuritic beading degeneration as a percentage of total neurons,"[1]; indirect stimulation: conditioned medium of microglia treated with 100 ng/ml cytokine for 24 h, neurons cultured 24 h",approximately 100%
same,glutamate concentration in neuron culture medium,activated microglia; conditioned medium of microglia treated with 100 ng/ml TNF-α,significantly high concentration
same,neuronal intracellular ATP concentration,[2],significantly low
same,extent of mitochondrial damage (MTS),[3],significantly mild
same,expression of gap junction (C×32) onto the cell surface of microglia,connexin-32 (C×32),augmented
"[N-]=[N+]=CC(=O)CC[C@H](N)C(=O)O [DON, 6-diazo-5-oxo-L-norleucine]",number of neurons with neuritic beading degeneration,[1]; [7],inhibitory action
same,number of dead neurons,[4]; [7],inhibitory action
same,extracellular glutamate concentration,activated microglia; [7],reduced to the control level
same,"delayed neuronal cell death (micrographs of hippocampal CA1, FIG. 15)","[5]; DON 0.016, 0.16, 1.6 mg/kg body weight i.p. every other day from day of ischemia",clearly inhibited
same,dose dependence of decrease in neuronal death,[5]; [8],dose-dependent manner
same,number of surviving neurons per 100 μm in the hippocampal CA1 region,[5]; [8],significantly protected
same,"EAE clinical symptoms (clinical score course, FIG. 17)","[6]; DON 0.016, 0.16, 1.6 mg/kg i.p. every other day from day of immunization",inhibited
same,EAE onset day (EAE clinical score becomes 1 or greater),[6]; [9],significantly delayed
same,number of severe sick days (EAE clinical score four or greater),[6]; [9],significantly reduced
"CC1(C)[C@@H](OC(=O)CCC(=O)O)CC[C@]2(C)[C@H]3C(=O)C=C4[C@@H]5C[C@@](C)(C(=O)O)CC[C@]5(C)CC[C@@]4(C)[C@]3(C)CC[C@@H]12 [CBX, carbenoxolone disodium]",number of neurons with neuritic beading degeneration,[1]; [10],inhibitory action
same,number of dead neurons,[4]; [10],inhibitory action
same,extracellular glutamate concentration,activated microglia; [10],reduced to the control level
same,"delayed neuronal cell death (micrographs of hippocampal CA1, FIG. 15)","[5]; CBX 0.2, 2, 20 mg/kg body weight i.p. every other day from day of ischemia",clearly inhibited
same,dose dependence of decrease in neuronal death,[5]; [11],dose-dependent manner
same,number of surviving neurons per 100 μm in the hippocampal CA1 region,[5]; [11],significantly protected
same,"EAE clinical symptoms (clinical score course, FIG. 17)","[6]; CBX 0.2, 2, 20 mg/kg i.p. every other day from day of immunization",inhibited
same,peak clinical score,[6]; [12],significantly decreased
same,EAE onset day (EAE clinical score becomes 1 or greater),[6]; [12],significantly delayed
same,number of severe sick days (EAE clinical score four or greater),[6]; [12],significantly reduced

# Source: US20090304712A1, “Neuronal Cell Death Inhibitor and Screening Method” (NATIONAL UNIVERSITY CORPORATION NAGOYA UNIVERSITY, priority 2006, published 2009)
